For data set [1], the system named is cardiomyocytic cell line derived from human ventricular heart tissue. In words: Cell viability in cardiomyocyte compound screen (CellTiter-Glo). The data set is classed as cell-based. For orientation: Cellular ATP, detected with luciferase, serves as a proxy for viable cell number.
Source text: Cells were stained with Hoechst 34580, CellTracker Green/CellMask Green Actin and MitoTracker Deep Red to detect nuclear material, cytoplasm/F-actin, and mitochondria, respectively, and cultured in poly-L-lysine-coated 96-well glass bottom plates at 15,800 cells/cm^2 and allowed to adhere overnight. For the screening, a total of 100 randomly organized compounds (TargetMol) were divided in 5 groups. Each group included an untreated condition, a vehicular DMSO control, and a known high-gigasome producing condition to comparatively study gigasome production rates. As a cell death control group, 500 nM Staurosporine was added to induce apoptosis. Cultures were incubated for 24 hours under gigasome inducing conditions at concentrations ranging between 10 nM and 10,000 nM. […] Cells remaining in the 96-well plates were assessed for viability using CellTiter-Glo (Promega).
Data set [2] deals with neuronal cell line derived from human neuroblastoma.
For data set [3] the test system is unchanged. In words: Small molecule compound screen of gigasome production in neuronal monocultures.
Source text: To quantify and characterize gigasome production using microscopy, while tracking cell viability/phenotype, a multi-readout system was developed that allowed simultaneous analysis of gigasomes harvested from cell culture media supernatants and respective gigasome producing cell viability. […] For the screening, a total of 99 compounds (TargetMol) were divided in 5 groups. Each group included an untreated condition, a vehicular DMSO control, and a known high-gigasome producing condition to comparatively study gigasome production rates. As a cell death control group, 500 nM Staurosporine was added to induce apoptosis. Cultures were incubated for 24 hours under gigasome inducing conditions at concentrations ranging between 10 nM and 10,000 nM. Before the end of the treatment, live neuronal cultures were imaged. The Zeiss ZEN Blue software was used to distribute imaging fields of view (positions) to create an unbiased imaging sample of a well. 5 images were taken using a Zeiss LSM 900 confocal microscope. […] The BioApps ZEN software package was used to perform cell nucleus segmentation and counting. After 24 hours, gigasomes were harvested from the cell culture media by gently removing from the top of each 96-well ⅔ of the total volume without disturbing the cell layer (containing the settled gigasomes) and by adding to each well the same amount of PBS. The wells were washed twice gently, and the gigasome-containing media/PBS wash was transferred into the well of a 384-well glass bottom plate. Cells remaining in the 96-well plates were assessed for viability using CellTiter-Glo (Promega).
For gigasome analysis in 384-well plates, the Zeiss ZEN Blue software was used to distribute positions to create an unbiased imaging sample of a well. 6 images per well were taken using a Zeiss LSM 900 confocal microscope.
A watershed binary segmentation step was performed to separate grouped objects. For each particle in the mask, characteristic parameters of the particle were calculated and saved.
Particles of interest were identified by thresholding by area and circularity. […] Circularity, defined by the formula 4pi(area/perimeter^2, was set to be between 0.8 and 1, where a value of 1.0 is a perfect circle, and a value of 0 is a line. Gigasomes were identified from the particles of interest by thresholding by mean nuclear signal. The nuclear signal threshold was set using a value equal to one fourth of a threshold value calculated by the Li auto-threshold algorithm applied to the distribution of all particles of interest. Particles of interest with nuclear signal below this value were considered “negative” for nuclear material and were identified as gigasomes. A sampling factor was calculated to extrapolate the total quantity of a type of object (particles, particles of interest, gigasomes) in the well. The sampling factor was the percentage of the well's area that was imaged. […] The normalized quantity or distribution of objects was described as a quantity or distribution of objects per 1000 cells.
The subject of data set [4] is cardiomyocytic cell line derived from human ventricular heart tissue. Kind of data set: Small molecule compound screen of gigasome production in cardiomyocytic monocultures.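 On all read-outs here: gigasomes shed into the culture medium were imaged by confocal microscopy and counted as round particles lacking nuclear signal, extrapolated to the whole well, fold change is relative to DMSO vehicle.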 Conditions: for Number of Gigasomes Produced / Fold Change of Gigasomes Produced vs. DMSO: cardiomyocytes.
The mark [5] stands for this setting: Table 22, dose 100 nM, cardiomyocytes, 24 hours.
Where [6] appears, read: Table 22, dose 1000 nM, cardiomyocytes, 24 hours.
[7] abbreviates: neuronal cells, dose 10 nM, 24 hours.
Where [8] appears, read: neuronal cells, dose 100 nM, 24 hours.
The mark [9] stands for this setting: neuronal cells, dose 10000 nM, 24 hours.
The mark [10] stands for this setting: Homo sapiens, 24 h, read-out: Fold Change of Gigasomes Produced vs. DMSO.
Where [11] appears, read: Homo sapiens, Cardiomyocyte, 24 h, read-out: Fold Change of Gigasomes Produced vs. DMSO.
[12] abbreviates: Table 22, dose 100 nM, 24 hours.
The mark [13] stands for this setting: Table 22, dose 1000 nM, 24 hours.
Where [14] appears, read: neuronal cells, dose 1000 nM, 24 hours.

Structures can show the parent of a compound that is named as a salt. Where two headings read alike, the source gives them in different places. A value given as a limit tells only on which side of the number the result lay.

With `CC[C@@]1([C@@H]2O[C@@H]([C@H]3O[C@@](O)(CO)[C@H](C)C[C@@H]3C)C[C@@H]2C)CC[C@H]([C@]2(C)CC[C@]3(C[C@H](O)[C@@H](C)[C@@H]([C@@H](C)[C@@H](OC)[C@H](C)C(=O)O)O3)O2)O1` [Monensin sodium salt], the Viability is given as >75% in data set [1] (Table 22, dose 10 nM, cardiomyocytes, 24 hours); >75% in data set [1] (setting [5]); 50-75% in data set [1] (setting [6]); >75% in data set [2] (setting [7]); >75% in data set [2] (setting [8]); 50-75% in data set [2] (setting [9]). The fold induction at 0.01 µM in data set [3] (setting [10]) was 0.75 to 1; in data set [4] (setting [11]) it was 1.25 to 1.5. For the same compound, the fold induction at 0.1 µM is 1.75 to 2 in data set [3] (setting [10]) and 1.25 to 1.5 in data set [4] (setting [11]). In data set [3] (setting [10]), the fold induction at 10 µM is 1.5 to 1.75. For the same compound, the “Number of Gigasomes Produced” value in data set [3] (setting [7]) is listed as <35; in data set [3] (setting [8]), 55-65; in data set [3] (setting [9]), 55-65; in data set [4] (Table 22, dose 10 nM, 24 hours) it was 150-175; in data set [4] (setting [12]), 150-175; in data set [4] (setting [13]) it was 250-275. Besides, in data set [4] (setting [11]), the fold induction at 1 µM lay in the range of 2 to 3.

Turning to `O=c1ncn2nc(Sc3ccc(F)cc3F)ccc2c1-c1c(Cl)cccc1Cl` [Neflamapimod], the Viability is reported as 100.0% in data set [1] (human, 24 h, 10 nM); 100.0% in data set [1] (human, 24 h, 100 nM); >75% in data set [1] (human, 24 h, 1000 nM); 100.0% in data set [1] (human, 24 h, 10000 nM); 100% in data set [2] (setting [7]); >75% in data set [2] (setting [8]). Further, the Viability in data set [2] (setting [14]) and in data set [2] (setting [9]) was 100% throughout. The fold induction at 0.01 µM in data set [3] (setting [10]) is 0.75 to 1; in data set [4] (setting [11]) it was 1 to 1.25. In addition, the fold induction at 0.1 µM in data set [3] (setting [10]) and in data set [4] (setting [11]) was 0.75 to 1 in each case. Also, the fold induction at 1 µM was 0.5 to 0.75 in data set [3] (setting [10]) and 0.75 to 1 in data set [4] (setting [11]). The fold induction at 10 µM in data set [3] (setting [10]) lay in the range of 0.5 to 0.75; in data set [4] (setting [11]) it was 0.75 to 1. The “Number of Gigasomes Produced” value in data set [3] (setting [7]) is recorded as 30-35; in data set [3] (setting [8]), 25-30; in data set [3] (setting [14]) it was 20-25; in data set [3] (setting [9]), 15-20; in data set [4] (Table 23 (down-regulators), dose 10 nM), 120-135; in data set [4] (Table 23 (down-regulators), dose 100 nM), 90-105. The “Number of Gigasomes Produced” value in data set [4] (Table 23 (down-regulators), dose 1000 nM) is 75-90; in data set [4] (Table 23 (down-regulators), dose 10000 nM), 75-90.

Take `CC(=O)O[C@H]1C(=O)[C@@]2(C)[C@H]([C@H](OC(=O)c3ccccc3)[C@]3(O)C[C@H](OC(=O)[C@H](O)[C@@H](NC(=O)c4ccccc4)c4ccccc4)C(C)=C1C3(C)C)[C@]1(OC(C)=O)CO[C@@H]1C[C@@H]2O` [Paclitaxel]: the Viability is >75% in data set [1] (human, 24 h, 10 nM) and >75% in data set [2] (human, 24 h, 10 nM). In addition, the fold induction at 0.01 µM in data set [3] (setting [10]) and in data set [4] (setting [11]) was 1.5 to 1.75 each time. For the same compound, the “Number of Gigasomes Produced” value in data set [3] (setting [7]) is reported as 55-65; in data set [4] (Table 22, dose 10 nM, 24 hours), 150-175.

Regarding `CC1=C(O)C(=O)C=C2C1=CC=C1[C@@]2(C)CC[C@@]2(C)[C@@H]3C[C@](C)(C(=O)O)CC[C@]3(C)CC[C@]12C` [Tripterin, reference compound], the figures for the Viability in data set [1] (setting [5]), in data set [1] (setting [6]) and in data set [2] (setting [14]) were >75%, 50-75% and >75%, respectively. The “Fold Change of Gigasomes Produced vs. DMSO” value in data set [3] (setting [14]) is listed as 2.0-3.0; in data set [4] (setting [12]), 0.75-1.0; in data set [4] (setting [13]) it was 3.0-4.0. Also, the “Number of Gigasomes Produced” value in data set [3] (setting [14]) is given as 75-85; in data set [4] (setting [12]) it was <150; in data set [4] (setting [13]), 375-400.

The record behind these values is patent US20240400986A1, “MEMBRANE BOUND COMPOSITIONS AND METHODS RELATING TO SAME” (FLAGSHIP PIONEERING INNOVATIONS VII, LLC, priority 2021, published 2024).
